The source of these data is patent US20230406812A1, “NOVEL AMINOAROMATIC COMPOUND OR PHARMACEUTICALLY ACCEPTABLE SALT THEREOF, AND PHARMACEUTICAL COMPOSITION FOR PREVENTING OR TREATING NEURODEGENERATIVE DISEASES COMPRISING SAME AS ACTIVE INGREDIENT” (INSTITUTE FOR BASIC SCIENCE, priority 2020, published 2023).

Molecules are shown by their SMILES.

One series has as its system cultured astrocytes. Briefly: Cell viability (QuantiMax reagent). Format: cell-based, C57BL/6 mice. The protocol:
(§1) Primary cortical astrocytes were prepared from C57BL/6 mice from the day of birth to day 3 since birth. The cerebral cortex was dissected without adherent meninges, minced, and dissociated into a single cell suspension by trituration. The cells were grown in Dulbecco's modified Eagle's medium (DMEM) (Invitrogen) supplemented with 25 mM glucose, 10% heat-inactivated horse serum, 10% heat-inactivated fetal calf serum (FCS), 2 mM glutamine, and 1,000 U/ml of penicillin-streptomycin. Culture was maintained at 37° C. in a humidified 5% CO2 incubator. On day 3 of the culture, cells were vigorously washed by repeated pipetting, and the medium was exchanged to remove debris and other floating cell types.
In addition, in order to investigate cell viability, the experiment was performed using a QuantiMax reagent. The cell viability was confirmed by a luminescence degree of QuantiMax, and the results are shown in B of FIG. 3.

The next series deals with hemoglobin (Hb) (Homo sapiens, UniProt P68871+P69905). Briefly: Hydrogen peroxide scavenging ability with hemoglobin (Amplex Red H2O2 assay). The format is biochemical. The conditions noted are these: 10 μM H2O2, 80 μg/ml hemoglobin, 37° C. about 30 minutes. How it is done:
Amplex Red is a means which turns into a fluorescent substance called resorufin when horse radish peroxidase (HRP) and H2O2 exist together and allows measurement of changes in H2O2, that is, H2O2 assay. […] The experiment was performed by adding hemoglobin instead of HRP to the H2O2 assay by Amplex Red (FIG. 1). The final concentration of each substance was 10 μM of H2O2 and 80 μg/ml of hemoglobin, and the aminoaromatic compound of the present invention was treated by concentration. After the reaction at 37° C. for about 30 minutes as such, fluorescence (excitation: 540 nm, emission: 580 nm) was measured by a microplate reader. At this time, it can be said that fluorescence is proportional to the amount of H2O2. Normalization was performed for each concentration based on a fluorescence value without a drug, and a value at which the fluorescence value was 50%, that is, a half maximal effective concentration (EC50) was determined by a program through statistical processing. The results are shown in the following Table 2, and AAD-2004 was used as a control group.

Series [1] is described as follows: Blood brain barrier (BBB) permeability analysis (PAMPA). Format: in vitro ADME. How it is done: Based on J Med Chem. 2001 Mar. 15; 44 (6):923-30., an artificial blood brain barrier (BBB) was produced by a parallel artificial membrane permeability assay (PAMPA), and the permeability of the drug was assessed.
On the technique in general: In PAMPA a lipid-coated filter parts donor from acceptor wells.

For a further series, the system named is WT mouse (C57BL/6 mouse). Briefly: Single toxicity assessment (lethal dose 50, LD50). Format: in vivo. The conditions noted are these: for animals died: C57BL/6, mouse, 300 mg/kg; for animals died / toxicity (death of animals): in vivo, ip; for toxicity (death of animals): mouse, 1000 mg/kg; for lethal toxicity: single dose 100 mg/kg IP, C57BL/6 mouse. How it is done: The aminoaromatic compound of the present invention, KDS12008 (Example 1), KDS12017 (Example 16), or KDS12025 (Example 21) was intraperitoneally injected at a single dose of 100, 300, and 1000 mg/kg, respectively, into a WT mouse at about 8 weeks of age (C57BL/6 mouse), and it was assessed whether the animal was dead.

Series [2] concerns primary cultured astrocytes. Description: In vitro H2O2 decomposition in primary cultured astrocytes (H2DCFDA-AM). Format: cell-based, C57BL/6 mice. How it is done: as §1
In order to verify that there was a H2O2 scavenging effect in a cell-level experiment, a cell-permeant 2′,7′-dichlorodihydrofluorescein diacetate (H2DCFDA-AM) drug which is a hydrogen peroxide probe in astrocytes was used to measure the amount of H2O2 in the cells with fluorescence (A and B of FIG. 2). […]
An experiment timeline for investigating the H2O2 decomposition effect by the aminoaromatic compound of the present invention, KDS12008 (Example 1) (10 μM) and sodium pyruvate (10 mM) for naturally occurring H2O2 in the cultured astrocytes is shown in A of FIG. 2. […] H2DCFDA-AM was a sample which reacted with H2O2 to produce green fluorescence, and was used at 10 μM for measurement. […]

In another series the test system is APP/PS1 mouse. Briefly: Passive avoidance test (PAT) I. Format: in vivo. The conditions noted are these: 30 mg/kg/day IP for 16 days. How it is done: A passive avoidance test is an experiment to check the memory of animals, in which a weak electric stimulation was given in a dark room and it was assessed whether the animal remembered the electrical stimulation.
Since mice preferred a dark room, they have a tendency to move quickly to a dark room when they are in a bright room. […] A time to move from a bright room to a dark room (latency to dark room, sec) was measured, thereby measuring memory of a combination of the electrical stimulation and the dark room. An APP/PS1 mouse which is used as an Alzheimer's animal model was used to perform the passive avoidance test (FIG. 4). A wild type (WT) mouse was used as a control group.
On the first day of PAT, as an acquisition session, the mouse was allowed to stay in a bright room, and after a certain time, a dark room was opened and a time for the mouse to enter the dark room was measured. When the mouse entered the dark room, an electrical shock (0.5 mA, 2 sec) was given by a foothold. On the second day, as a retrieval session, the mouse was placed in a bright room, and a time for the mouse to enter a dark room was measured. At this time, the door of the dark room was opened first.
The APP/PS1 dementia mouse was intraperitoneally injected with the aminoaromatic compound of the present invention (KDS12008 (Example 1), KDS12017 (Example 16), or KDS12025 (Example 21)) (KDS12008 (Example 1) 30 mg/kg/day (30 mpk); KDS12017 (Example 16) 30 mg/kg/day (30 mpk); KDS12025 (Example 21) 3 mg/kg/day (3 mpk)) for 16 days (intraperitoneal injection, IP).

In series [3] the test system is APP/PS1 mouse hippocampus astrocytes (GFAP). Description: Immunohistochemistry (IHC) I of brain tissue, GFAP. Format: in vivo. The conditions noted are these: 30 mg/kg/day IP for 16 days. The protocol: The brain of the Alzheimer's animal model of Experimental Example 3 was fixed with formaldehyde, and sliced into a small thickness. The amount of cells or specific protein in the sliced brain was measured with an image by histochemical staining. In the present experimental example, an antibody labeling an astrocyte was used to measure a change in astrocytes related to dementia. The results are illustrated in FIG. 5. That is, in the present experimental example, the hippocampus of the brain was histologically stained and a change in astrocytes around dementia substance amyloid beta was observed. Glial fibrillary acidic protein (GFAP) refers to astrocytes staining, 4′,6-diamidino-2-phenylindole (DAPI) marked cell nuclei and amyloid beta substance.

Chain of hemoglobin (Hb) (P69905 2-142 limits assumed): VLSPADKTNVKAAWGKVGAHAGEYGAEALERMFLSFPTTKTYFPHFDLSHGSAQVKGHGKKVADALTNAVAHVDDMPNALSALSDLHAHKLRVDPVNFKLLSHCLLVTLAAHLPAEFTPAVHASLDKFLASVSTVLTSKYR
Chain of hemoglobin (Hb) (P68871 2-147 limits assumed): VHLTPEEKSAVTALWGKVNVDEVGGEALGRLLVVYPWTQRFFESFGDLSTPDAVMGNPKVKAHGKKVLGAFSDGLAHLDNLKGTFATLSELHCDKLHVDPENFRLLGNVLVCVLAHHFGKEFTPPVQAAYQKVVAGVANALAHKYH

As for `CC(=O)C(=O)[O-].[Na+]` [sodium pyruvate, reference compound], in the series with cultured astrocytes (10 mM), the cell viability result is on record as “lowered cell viability”.

As usually defined, the EC50 is the concentration giving half of the maximal effect. Consider `CNc1ccc(NCCc2cccc(C(F)(F)F)c2)cc1` [Example 19], for which, at hemoglobin (Hb), the EC50 was 190 nM.

Turning to `Nc1ccc(NCCCc2ccc(C(F)(F)F)cc2)cc1` [Example 11], the EC50 at hemoglobin (Hb) ((DMSO)) amounted to 540 nM.

As for `CNc1ccc(NCCc2ccccc2C(F)(F)F)cc1` [Example 18], the EC50 on hemoglobin (Hb) came out at 210 nM.

With `Nc1ccc(NCCc2cccc(C(F)(F)F)c2)cc1` [Example 13], the EC50 at hemoglobin (Hb) came out at 720 nM.

For the compound `CN(C)c1ccc(NCCCc2ccc(C(F)(F)F)cc2)cc1` [Example 10], at hemoglobin (Hb) ((DMSO)), the EC50 came out at 300 nM.

In the case of `CNc1ccc(NCCCc2ccc(C(F)(F)F)cc2)cc1` [Example 17], the EC50 at hemoglobin (Hb) ((DMSO)) was determined as 300 nM.

Take `CN(C)c1ccc(NCCc2cccc(Cl)c2)cc1` [Example 5]: the EC50 at hemoglobin (Hb) is 430 nM.

As for `CNc1ccc(NCCc2cccc(Cl)c2)cc1` [Example 20], at hemoglobin (Hb), the EC50 came out at 260 nM.

On to `CN(C)c1ccc(NCCc2ccc(Cl)cc2)cc1` [Example 6], for which the EC50 on hemoglobin (Hb) is 270 nM.

`Nc1ccc(NCCc2ccc(C(F)(F)F)cc2)cc1` [Example 9]: the EC50 on hemoglobin (Hb) came out at 300 nM.

Regarding `CNc1ccc(NCCc2ccc(Cl)cc2)cc1` [Example 22], the 50% effective concentration (EC50) on hemoglobin (Hb) turned out to be 520 nM.

For orientation: Papp means the rate of passage across a membrane or cell layer, normalised by area and donor concentration. As to `O=C(O)c1cc(NCCc2ccc(C(F)(F)F)cc2)ccc1O` [AAD-2004, reference compound], the EC50 on hemoglobin (Hb) worked out at 990 nM. For the same compound, the Papp at 50 μM in series [1] turned out to be 3.56 ×10⁻⁶ cm/s.

For the compound `Nc1ccc(NCCc2cccc(F)c2)cc1` [Example 14], the EC50 at hemoglobin (Hb) was found to be 780 nM.

As for `CN(C)c1ccc(NCCc2ccc(C(F)(F)F)cc2)cc1` [Example 1], in the series on WT mouse (C57BL/6 mouse), the animals died result is recorded as “about 50%”, the “toxicity (death of animals)” value was “showed toxicity” and the lethal toxicity result is listed as “lethal toxicity was not shown”. In addition, in the series with cultured astrocytes (100 μM), the cell viability entry is on record as “no effect on cell viability”. On hemoglobin (Hb), the EC50 is 540 nM. Further, the “H2O2 decomposition effect on naturally occurring H2O2” value in series [2] (10 μM, 2 days, cultured astrocytes) is listed as “statistically significant decrease in H2O2”. Further, the “amount of H2O2 in cells (fluorescence intensity)” value in series [2] (astrocytes treated at various concentrations) is “H2O2 was decreased with the concentration”. In addition, in the series on APP/PS1 mouse, the “latency to dark room (impaired memory)” value is listed as “significantly recovered”. The “GFAP (astrocytes) in hippocampus” value in series [3] is on record as “decreased GFAP”.

Turning to `CN(C)c1ccc(NCCc2ccc(F)cc2)cc1` [Example 8], the EC50 on hemoglobin (Hb) was 410 nM.

As for `COc1ccc(CCNc2ccc(N(C)C)cc2)cc1` [Example 7], the concentration for a half-maximal effect (EC50) at hemoglobin (Hb) turned out to be 460 nM.

Regarding `CNc1ccc(NCCc2ccc(OC)cc2)cc1` [Example 23], on hemoglobin (Hb), the EC50 was 620 nM.

On to `CNc1ccc(NCCc2cccc(OC)c2)cc1` [Example 24], for which the EC50 on hemoglobin (Hb) was 610 nM.

On to `CN(C)c1ccc(NCCc2cccc(C(F)(F)F)c2)cc1` [Example 3], for which, at hemoglobin (Hb), the EC50 turned out to be 560 nM.

Consider `Nc1ccc(NCCc2ccccc2Cl)cc1` [Example 15], for which the EC50 at hemoglobin (Hb) was found to be 590 nM.

As for `CN(C)c1ccc(NCCc2ccccc2Cl)cc1` [Example 4], on hemoglobin (Hb), the EC50 came to 580 nM.

Turning to `CNc1ccc(NCCc2ccc(C(F)(F)F)cc2)cc1` [Example 16], in the series on WT mouse (C57BL/6 mouse), the animals died entry is on record as “about 50%”, the “toxicity (death of animals)” value is “showed toxicity” and the lethal toxicity result is reported as “lethal toxicity was not shown”. The EC50 at hemoglobin (Hb) was 190 nM. The “latency to dark room (impaired memory)” value in the series with APP/PS1 mouse is on record as “significantly recovered”. Also, in series [3], the “GFAP (astrocytes) in hippocampus” value is given as “decreased GFAP”.

Consider `Nc1ccc(NCCc2ccccc2C(F)(F)F)cc1` [Example 12], for which the EC50 at hemoglobin (Hb) stood at 830 nM.
